Values after ≈ are worked out from the molar mass of the structure shown. Some results are limits rather than exact numbers.

The IC50 is the concentration that inhibits the measured activity by half.

Assay [1] is described as follows: Inhibition the IL-6 secretion stimulated at a concentration of 10 ng/ml in osteoblastic MC3T3-E 1 cells. The note with it: Mus musculus, MC3T3-E1. In kind it is functional.
For assay [2], the system named is Mus musculus. Kind of assay: Effect on femoral weight loss in ovariectomized mice at a dose of 0.4 mg/kg/day, ip. The format is functional, organism-based.
The test system of assay [3] is Mus musculus. Kind of assay: Effect on femoral weight loss in ovariectomized mice at a dose of 2.0mg/kg/day, ip. In kind it is functional, organism-based.

Take `CCOC(=O)c1sc(N)nc1-c1ccccc1`: half-maximal inhibition in assay [1] (IC50) required 6 mg/L (≈ 24.2 µM). In assay [1], `CCOC(=O)c1sc(C)nc1-c1ccccc1` returned an IC50 of 40 mg/L (≈ 162 µM). Compared with the last molecule, the IC50 is about 6.7-fold higher. Same read-out and setting: the value for `Cc1sc(N)nc1-c1ccccc1` was 10 mg/L (≈ 52.6 µM).

As to `Nc1nc(-c2ccc(Cl)cc2)c(C(=O)O)s1`, the IC50 in assay [1] was determined as 20 mg/L (≈ 78.5 µM). Moreover, the Recovery in the assay with Mus musculus [2] was determined as 7.1%; in the assay on Mus musculus [3] it was 8.6%. In turn, `CCOC(=O)c1sc(-c2ccncc2)nc1-c1ccccc1` returned an IC50 in assay [1] of 90 mg/L (≈ 290 µM). For the molecule `Cc1sc(N)nc1-c1ccc(O)cc1`, the IC50 in assay [1] came out at 1 mg/L (≈ 4.85 µM). Also, the Recovery with Mus musculus [2] is 13.9%; in the assay with Mus musculus [3], 35.5%. In the case of `Cc1ccc(-c2nc(N)sc2C)cc1`, in assay [1], the half-maximal inhibitory concentration (IC50) came to 24 mg/L (≈ 117 µM). The same measure, in the same setting: the value for `CCOC(=O)c1sc(N)nc1-c1ccc(Cl)cc1` was 6 mg/L (≈ 21.2 µM); that for `Nc1nc(-c2ccccc2)c(C(=O)O)s1` was greater than 100 mg/L; that for `Cc1sc(N)nc1-c1ccc(F)cc1` was 27 mg/L (≈ 130 µM). Molecule `CCCNC(=O)c1sc(N)nc1-c1ccccc1` had an IC50 in assay [1] of 40 mg/L (≈ 153 µM). As to `CCOC(=O)c1sc(NC)nc1-c1ccccc1`, in assay [1], the concentration for half-maximal inhibition (IC50) worked out at 40 mg/L (≈ 152 µM). On the same count and under the same terms, the same measure for `Cc1sc(N)nc1-c1ccc(Cl)c(Cl)c1`: 35 mg/L (≈ 135 µM). On the same count and under the same terms, the same measure for `CCOC(=O)c1scnc1-c1ccccc1`: 30 mg/L (≈ 129 µM). As to `CNc1sc(N)nc1-c1ccccc1`, the IC50 in assay [1] turned out to be 40 mg/L (≈ 195 µM). Still for that read-out and setting: the value for `Cc1sc(N)nc1-c1ccc(-c2ccccc2)cc1` was 39 mg/L (≈ 146 µM); that for `Cc1sc(N)nc1-c1cccc(Cl)c1` was 2.5 mg/L (≈ 11.1 µM). On the same count and under the same terms, the same measure for `COc1ccc(-c2nc(N)sc2C)cc1`: 7 mg/L (≈ 31.8 µM). `Cc1sc(N)nc1-c1ccc(Cl)cc1`: in assay [1], the midpoint of inhibition, the IC50, lay at 10 mg/L (≈ 44.5 µM). Further, the Recovery with Mus musculus [2] is 22.8%; with Mus musculus [3], 57.8%.

As to `Cc1sc(N)nc1-c1ccccc1Cl`, the IC50 in assay [1] is 50 mg/L (≈ 223 µM). In assay [1], `CCc1sc(N)nc1-c1ccccc1` gave an IC50 greater than 100 mg/L. In turn, `Nc1nc(-c2ccccc2)cs1` gave an IC50 in assay [1] of 60 mg/L (≈ 340 µM). Still for that read-out and setting: the value for `Cc1sc(N)nc1-c1ccc(C(F)(F)F)cc1` was 3 mg/L (≈ 11.6 µM); that for `Cc1sc(N)nc1-c1ccc(Cl)cc1Cl` was 8 mg/L (≈ 30.9 µM); that for `CCOC(=O)c1sc(NC=O)nc1-c1ccccc1` was greater than 100 mg/L.

These data come from ChEMBL document CHEMBL1131667, “4-Phenylthiazole derivatives inhibit IL-6 secretion in osteoblastic cells and suppress bone weight loss in ovariectomized mice” (Bioorg Med Chem Lett, 1999).
